The source made the active and inactive calls. No cut-off for these calls is given here.
Key:
RAW264.7 = experiment: Inhibition of LPS-induced NF-kappaB activation in mouse RAW264.7 cells transfected with luciferase reporter gene at 20 uM pretreated with compounds for 30 mins followed by LPS stimulation for 8 hrs by luciferase reporter gene assay; assay type: cell-based; settings: time 8.5 hrs
Danio rerio [1] = species on record: Danio rerio; experiment: Anti osteoporosis activity in prednisone induced Tg (ola.sp7:nlsGFP) Zebrafish model assessed as mitigation of fluorescence area reduction in zebrafish branchiostegal rays at 2.5 to 5 uM by microscopy based analysis; assay type: functional, organism-based; settings: dose 2.5-5 µM
Danio rerio [2] = species on record: Danio rerio; experiment: Anti osteoporosis activity in prednisolone induced Tg (ola.sp7:nlsGFP) Zebrafish model assessed as upregulation of col1a2 mRNA expression at 5 uM by real-time qPCR analysis; assay type: functional, organism-based
[3] = target: T1, Serine/threonine-protein kinase TBK1 (Homo sapiens) (UniProt Q9UHD2); experiment: Inhibition of TBK1 induced IFN-beta luciferase activation in HEK293T cells at 1 to 30 uM by Dual luciferase reporter assay; assay type: cell-based; settings: dose 1-30 µM
T1 sequence (whole entry): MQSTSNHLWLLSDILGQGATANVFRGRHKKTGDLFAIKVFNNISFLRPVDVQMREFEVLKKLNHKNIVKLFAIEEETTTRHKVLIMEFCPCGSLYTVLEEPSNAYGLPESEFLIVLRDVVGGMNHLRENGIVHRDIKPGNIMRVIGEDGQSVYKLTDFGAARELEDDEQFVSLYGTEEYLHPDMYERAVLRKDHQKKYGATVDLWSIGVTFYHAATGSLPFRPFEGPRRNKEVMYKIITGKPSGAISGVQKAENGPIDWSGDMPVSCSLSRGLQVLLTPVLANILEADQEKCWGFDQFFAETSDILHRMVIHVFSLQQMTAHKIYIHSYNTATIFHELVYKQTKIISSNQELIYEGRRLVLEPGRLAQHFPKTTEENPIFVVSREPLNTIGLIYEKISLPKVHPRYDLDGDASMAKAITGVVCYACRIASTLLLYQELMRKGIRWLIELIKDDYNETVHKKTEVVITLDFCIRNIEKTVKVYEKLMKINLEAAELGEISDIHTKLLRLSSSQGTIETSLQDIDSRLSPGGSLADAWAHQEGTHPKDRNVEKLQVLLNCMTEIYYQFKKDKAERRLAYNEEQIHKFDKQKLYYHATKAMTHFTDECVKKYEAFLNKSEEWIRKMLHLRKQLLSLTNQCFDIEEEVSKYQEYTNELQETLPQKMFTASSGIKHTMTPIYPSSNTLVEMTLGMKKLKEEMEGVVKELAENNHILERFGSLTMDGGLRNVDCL

Danio rerio [4] = species on record: Danio rerio; experiment: Anti osteoporosis activity in prednisolone induced Tg (ola.sp7:nlsGFP) Zebrafish model assessed as upregulation of frem2b mRNA expression at 5 uM by real-time qPCR analysis; assay type: functional, organism-based
Danio rerio [5] = species on record: Danio rerio; experiment: Anti osteoporosis activity in prednisolone induced Tg (ola.sp7:nlsGFP) Zebrafish model assessed as upregulation of frem2a mRNA expression at 5 uM by real-time qPCR analysis; assay type: functional, organism-based
HEK293T = experiment: Inhibition of cGAS/STING induced IFN-beta luciferase activation in HEK293T cells at 1 to 30 uM by Dual luciferase reporter assay; assay type: cell-based; settings: Homo sapiens, dose 1-30 µM
Danio rerio [6] = species on record: Danio rerio; experiment: Anti osteoporosis activity in Tg (ola.sp7:nlsGFP) Zebrafish model assessed as reversal of prednisone induced alp gene inhibition 2.5 to 10 uM by real-time qPCR analysis; assay type: functional, organism-based; settings: dose 2.5-10 µM
Danio rerio [7] = species on record: Danio rerio; experiment: Anti osteoporosis activity in prednisolone induced Tg (ola.sp7:nlsGFP) Zebrafish model assessed as upregulation of itbg5 mRNA expression at 5 uM by real-time qPCR analysis; assay type: functional, organism-based
Danio rerio [8] = species on record: Danio rerio; experiment: Anti osteoporosis activity in prednisone induced Tg (ola.sp7:nlsGFP) Zebrafish model assessed as mitigation of fluorescence density reduction in zebrafish branchiostegal rays at 2.5 to 5 uM by microscopy based analysis; assay type: functional, organism-based; settings: dose 2.5-5 µM
Danio rerio [9] = species on record: Danio rerio; experiment: Anti osteoporosis activity in prednisolone induced Tg (ola.sp7:nlsGFP) Zebrafish model assessed as upregulation of vdrb-mRNA expression at 5 uM by real-time qPCR analysis; assay type: functional, organism-based
Danio rerio [10] = species on record: Danio rerio; experiment: Anti osteoporosis activity in Tg (ola.sp7:nlsGFP) Zebrafish model assessed as reversal of prednisone induced bmp4 gene inhibition 2.5 to 10 uM by real-time qPCR analysis; assay type: functional, organism-based; settings: dose 2.5-10 µM
BMDM [11] = experiment: Downregulation of TNF-alpha mRNA expression in mouse BMDM cells by real-time PCR analysis; assay type: functional, cell-based; settings: dose 1-30 µM
Danio rerio [12] = species on record: Danio rerio; experiment: Anti osteoporosis activity in prednisone induced Tg (ola.sp7:nlsGFP) Zebrafish model assessed as mitigation of fluorescence area reduction in zebrafish opercle at 2.5 to 5 uM by microscopy based analysis; assay type: functional, organism-based; settings: dose 2.5-5 µM
[13] = target: T2, Interferon regulatory factor 3 (Homo sapiens) (UniProt Q14653); experiment: Inhibition of IRF3 induced IFN-beta luciferase activation in HEK293T cells at 1 to 30 uM by Dual luciferase reporter assay; assay type: cell-based; settings: dose 1-30 µM
T2 sequence (whole entry): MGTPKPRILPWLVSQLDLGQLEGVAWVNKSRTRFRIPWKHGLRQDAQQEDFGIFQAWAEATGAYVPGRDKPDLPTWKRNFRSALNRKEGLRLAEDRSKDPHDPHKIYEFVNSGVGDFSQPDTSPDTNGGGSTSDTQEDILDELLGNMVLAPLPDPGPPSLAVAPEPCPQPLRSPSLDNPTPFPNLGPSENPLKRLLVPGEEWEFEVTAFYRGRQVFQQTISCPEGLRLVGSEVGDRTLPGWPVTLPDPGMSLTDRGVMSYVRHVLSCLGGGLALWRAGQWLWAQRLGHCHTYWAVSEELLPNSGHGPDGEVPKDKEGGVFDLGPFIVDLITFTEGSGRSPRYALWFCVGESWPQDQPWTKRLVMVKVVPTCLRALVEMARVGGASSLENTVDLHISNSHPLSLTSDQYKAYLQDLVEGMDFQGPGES

Danio rerio [14] = species on record: Danio rerio; experiment: Anti osteoporosis activity in prednisone induced Tg (ola.sp7:nlsGFP) Zebrafish model assessed as mitigation of fluorescence density reduction in zebrafish opercle at 2.5 to 5 uM by microscopy based analysis; assay type: functional, organism-based; settings: dose 2.5-5 µM
BMMC [15] = experiment: Anti-osteoporosis activity in mouse BMMC cells assessed as inhibition of RANKL-induced osteoclast differentiation measured after 3 days in presence of MCSF by TRAP staining based assay; assay type: functional, cell-based; settings: dose 5-15 µM, time 3.0 day
BMMC [16] = experiment: Cytotoxicity against mouse BMMC cells at 5 to 15 uM measured after 72 hrs by MTT assay; assay type: toxicity, cell-based; settings: dose 5-15 µM
Danio rerio [17] = species on record: Danio rerio; experiment: Anti osteoporosis activity in Tg (ola.sp7:nlsGFP) Zebrafish model assessed as reversal of prednisone induced bmp2a gene inhibition 2.5 to 10 uM by real-time qPCR analysis; assay type: functional, organism-based; settings: dose 2.5-10 µM
Danio rerio [18] = species on record: Danio rerio; experiment: Anti osteoporosis activity in prednisolone induced Tg (ola.sp7:nlsGFP) Zebrafish model assessed as upregulation of col4a6 mRNA expression at 5 uM by real-time qPCR analysis; assay type: functional, organism-based
BMDM [19] = experiment: Downregulation of IFN-beta mRNA expression in mouse BMDM cells by real-time PCR analysis; assay type: functional, cell-based; settings: dose 1-30 µM
[20] = Inhibition of LPS-induced NF-kappaB activation in mouse RAW264.7 cells transfected with luciferase reporter gene pretreated with compounds for 30 mins followed by LPS stimulation for 8 hrs by luciferase reporter gene assay; assay type: cell-based
BMDM [21] = experiment: Downregulation of CXCL10 mRNA expression in mouse BMDM cells by real-time PCR analysis; assay type: functional, cell-based; settings: dose 1-30 µM

In the case of C[C@]1(C(=O)O)[C@@H]2C=C(C(=O)O)CC[C@@H]21, the inhibition (RAW264.7) is reported as “Active”.
For COC(=O)CC[C@@]1(C)[C@@H]2C=C(C(=O)O)CC[C@@H]21, the Activity (Danio rerio [1]) was “Active”, the Activity (Danio rerio [2]) was “Active” and the inhibition [3] was “Active”. The Activity (Danio rerio [4]) was “Active”, the Activity (Danio rerio [5]) was “Active” and the inhibition (HEK293T) was “Active”. For the same molecule, the Activity (Danio rerio [6]) was “Active”, the Activity (Danio rerio [7]) was “Active” and the Activity (Danio rerio [8]) was “Active”. For the same molecule, the Activity (Danio rerio [9]) was “Active”, the Activity (Danio rerio [10]) was “Active” and the Activity (BMDM [11]) was “Dose-Dependent Effect”. For the same molecule, the Activity (Danio rerio [12]) was “Active”, the inhibition (RAW264.7) was “Active” and the inhibition [13] was “Active”. The Activity (Danio rerio [14]) was “Active”, the Activity (BMMC [15]) was “Dose-Dependent Effect” and the Activity (BMMC [16]) was “Non-Toxic”. The Activity (Danio rerio [17]) was “Active”, the Activity (Danio rerio [18]) was “Active” and the Activity (BMDM [19]) was “Dose-Dependent Effect”. For the same molecule, the IC50 [20] was 14.5 µM and the Activity (BMDM [21]) was “Dose-Dependent Effect”.
For CC(C)(O)C(=O)CC[C@@]1(C)[C@@H]2C=C(C(=O)O)CC[C@@H]21, the inhibition (RAW264.7) was “Active”.

Reference: ChEMBL document CHEMBL5518173, “Discovery of a novel anti-osteoporotic agent from marine fungus-derived structurally diverse sirenins” (Eur J Med Chem, 2024)
